How the values were obtained:
[1] = tested on: LLC cells; assay: MTT cell viability, berberine combined with IR, LLC cells; format: cell-based; settings: LLC cells (data not shown)
From the text: The data were depicted in FIG. 1C after normalization.

[2] = tested on: beclin-1; assay: immunohistochemistry of beclin-1 in xenograft; format: in vivo, C57BL/6 mice; settings: co-treatment groups (berberine + IR)
Description: The application of the additive cytotoxicity of IR combined with berberine in cancer treatment was further evidenced in an in vivo Lewis lung carcinoma (LLC) model in mice (Camphausen K, et al. Cancer Res 2001; 61:2207-11). Male C57BL/6 mice aged 4-6 weeks (National Taiwan University Animal Center, Taiwan) were used. To form a tumor xenograft, Lewis lung cells (2×10^6) were injected s.c. into the right hind limb. Animals were randomized into six groups: control, irradiation (IR) alone, berberine (1.0, 2.0 mg/kg) alone, and IR combined with berberine (1.0, 2.0 mg/kg). For tumor irradiation, mice were immobilized in a customized harness that exposed the right hind leg while shielding the remainder of the body by 3.5 cm of lead. Mice were exposed to a single dose of 8 Gy. […] To obtain tumor growth curves, three orthogonal tumor diameters were measured every 4-day intervals with a vernier caliper, and the mean values were calculated. […] Primary tumor growth delay was measured by calipers in two dimensions, and the volumes were calculated according to the formula: tumor volume=(width) 2×length×0.52. […] The tumor volume at the primary site of each group was measured before treatment, and the average tumor volume was designated as T0. When the animals were sacrificed at the end of experiment, the xenografts were removed, and the tumor volume was determined and presented as fold of T0. […]

[3] = tested on: A549 cells
Description: Cells were cultured in phenol-red-free medium and irradiated with a […] (Varian, 21-EX). The radiation was delivered as a single dose ranging from 2 to 8 Gy in an appropriate field size at a dose rate of 400 cGy/min. A 3-cm polystyrene block was used under the petri dishes during each irradiation to allow homogeneous backscattering radiation. Control cells were removed from the incubator and placed for the same period of time under the IR source but without radiation treatment. In the combined treatment mortality tests, berberine was added 2 h prior to irradiation.
The enhancing effect of berberine on radio-sensitivity in NSCLC was performed by treating A549 with various concentrations of berberine alone or combined with different dose of IR at 37° C. for 24 h or 48 h followed by MTT assay for cell viability analysis. Thereafter, the medium was changed and incubated with 100 μl MTT (Sigma St Louis, Mo.)/well for 4 h, which was solubilized in isopropanol, and measured spectrophotometrically at 563 nm. […] To further ascertain the effect of berberine on the lethality of IR, clonogenic survival assay was performed to examine long term survival. […] After 14 days, colonies were fixed with methanol, stained with 0.25% crystal violet, and counted if they were consisted of more than 50 cells. […]

[4] = tested on: A549 cells; assay: mitochondrial membrane potential by JC-1 flow cytometry; format: cell-based, human; settings: 1.0, 2.5, 5.0 and 10 μM berberine combined with irradiation (6 Gy), 24 h
Description: Berberine has been reported to induce cell death in several cancer cells via mitochondrial disruption (Lin J P, et al. World J Gastroenterol 2006; 12:21-28.). Therefore, mitochondrial membrane potential was next measured with JC-1. Mitochondria membrane potential (Δ Ψm), the lipophilic cationic probe fluorochrome JC-1 (Invitrogen) was used. […] After a treatment of radiation (6 Gy) for 24 h in the absence or presence of 1.0-10 μM berberine, cells were rinsed with DMEM, and JC-1 (5 μmol/L) was loaded. Determination of Δ Ψm was also carried out with a FACScan Flow Cytometer. […] It has been reported that depolarized mitochondria would move into autophagic vacuoles in response to appropriate stimulation; thus, mitochondria dysfunction may be a point of overlap between apoptotic and autophagocytic processes (Bras M, et al. Biochemistry (Mosc) 2005; 70:231-39). […] On the other hand, beclin-1 siRNA and 3-MA (autophagy inhibitor) blocked the cell death induced by 5.0 μM berberine combined with 6 Gy IR (p<0.001). As a consequence, berberine sensitized A549 cells to IR damage via inducing autophagic cell death.

## COc1ccc2cc3[n+](cc2c1OC)CCc1cc2c(cc1-3)OCO2 [berberine, Berberine]
[1]
  dose and time dependent synergic-killing effect: also observed
[2]
  beclin-1 protein expression in xenograft: remarkable increased
[3]; IR applied to cells incubated with berberine, 24 h and 48 h, A549 (FIG. 1B)
  cell viability: decreased
[3]; berberine combined with 6 Gy IR, 24 h, A549 (FIG. 1A)
  combination effect on cell viability: conspicuous
[4]
  mitochondrial membrane potential (JC-1): great loss of membrane potential

From patent US20090076050A1, “SYNERGISTIC TUMOR-KILLING EFFECT OF RADIATION AND BERBERINE COMBINED TREATMENT IN LUNG CANCER” (CHUNG SHAN MEDICAL U., priority 2007, published 2009)
